The results in this text go back to ChEMBL document CHEMBL3779842, “Isopimarane diterpenoids from Kaempferia pulchra rhizomes collected in Myanmar and their Vpr inhibitory activity” (Bioorg Med Chem Lett, 2016).

Calls of active or inactive are those of the source. The rule behind the calls is not given here.

Assay type in all cases: cell-based
Conditions in all cases: Human immunodeficiency virus 1

Experiment [1] has as its system TREx-HeLa-Vpr. In words: Inhibition of -c-myc-His6 tagged HIV1 NL4-3 Vpr expressed in human TREx-HeLa-Vpr cells assessed as cell viability at 3.12 uM after 48 hrs in presence of tetracycline by WST8 assay.
In experiment [2] the test system is TREx-HeLa-Vpr. As to the kind of experiment: Inhibition of -c-myc-His6 tagged HIV1 NL4-3 Vpr expressed in human TREx-HeLa-Vpr cells assessed as cell viability at 1.56 uM after 48 hrs in presence of tetracycline by WST8 assay. Background: Tetrazolium dyes change colour on reduction, which living cells bring about.
For experiment [3], the system named is TREx-HeLa-Vpr. As to the kind of experiment: Inhibition of -c-myc-His6 tagged HIV1 NL4-3 Vpr expressed in human TREx-HeLa-Vpr cells assessed as cell viability at 6.25 uM after 48 hrs in presence of tetracycline by WST8 assay.
In experiment [4] the test system is TREx-HeLa-Vpr. In words: Inhibition of -c-myc-His6 tagged HIV1 NL4-3 Vpr expressed in human TREx-HeLa-Vpr cells assessed as cell viability at 5 uM after 48 hrs in presence of tetracycline by WST8 assay.

Regarding `C=C[C@@]1(C)C=C2CC[C@@H]3C(C)(C)C[C@@H](O)C[C@@]3(C)[C@@H]2CC1`, the inhibition entry with TREx-HeLa-Vpr [1], in the experiment on TREx-HeLa-Vpr [2] and with TREx-HeLa-Vpr [3] was “inactive” each time.

As for `C=C[C@]1(C)C=C2[C@H](O)C[C@H]3C(C)(C)CCC[C@]3(C)[C@H]2CC1`, the inhibition result in the experiment with TREx-HeLa-Vpr [1], with TREx-HeLa-Vpr [2] and in the experiment with TREx-HeLa-Vpr [3] was “inactive” throughout.

Turning to `C=C[C@]1(C)C=C2CC[C@H]3C(C)(C)[C@H](O)C[C@H](O)[C@]3(C)[C@H]2CC1`, the inhibition result with TREx-HeLa-Vpr [1], with TREx-HeLa-Vpr [2] and with TREx-HeLa-Vpr [3] was “inactive” throughout.

On to `C=C[C@]1(C)C=C2[C@@H](O)C[C@H]3C(C)(C)CCC[C@]3(C)[C@@]2(O)CC1`, for which the inhibition result with TREx-HeLa-Vpr [1], with TREx-HeLa-Vpr [2] and in the experiment with TREx-HeLa-Vpr [3] was “inactive” in each case.

For the compound `C=C[C@@]1(C)CCC2=C(C[C@@H](O)[C@H]3C(C)(C)CC[C@H](O)[C@]23C)[C@@H]1OC`, the inhibition entry in the experiment on TREx-HeLa-Vpr [1], in the experiment on TREx-HeLa-Vpr [2] and in the experiment on TREx-HeLa-Vpr [3] was “inactive” throughout.

Take `C=C[C@]1(C)C=C2[C@H](OC(C)=O)[C@@H](O)[C@H]3C(C)(C)CCC[C@]3(C)[C@H]2CC1`: the figures for the Activity with TREx-HeLa-Vpr [1] and with TREx-HeLa-Vpr [2] were 114% and 127%, respectively. Moreover, the Cell viability in the experiment on TREx-HeLa-Vpr [3] turned out to be 96%.

For the compound `C=C[C@]1(C)C=C2[C@H](OC(C)=O)C[C@H]3C(C)(C)CCC[C@]3(C)[C@@]2(O)CC1`, the inhibition result in the experiment with TREx-HeLa-Vpr [1], in the experiment with TREx-HeLa-Vpr [2] and with TREx-HeLa-Vpr [3] was “inactive” in each case.

For `C=C[C@]1(C)C=C2C[C@@H](OC(C)=O)[C@H]3C(C)(C)CCC[C@]3(C)[C@@]2(O)CC1`, the inhibition result in the experiment with TREx-HeLa-Vpr [1], in the experiment with TREx-HeLa-Vpr [2] and in the experiment on TREx-HeLa-Vpr [3] was “inactive” in each case.

In the case of `C=C[C@@]1(C)CCC2=C(CC[C@H]3C(C)(C)CCC[C@]23C)[C@H]1O`, the Activity came to 106% with TREx-HeLa-Vpr [1] and 116% with TREx-HeLa-Vpr [2]. The Cell viability in the experiment with TREx-HeLa-Vpr [3] stood at 104%.

Turning to `C=C[C@]1(C)C=C2[C@@H](OC(C)=O)[C@@H](O)[C@H]3C(C)(C)CCC[C@]3(C)[C@@]2(O)CC1`, the inhibition entry in the experiment with TREx-HeLa-Vpr [1], in the experiment on TREx-HeLa-Vpr [2] and in the experiment with TREx-HeLa-Vpr [3] was “inactive” throughout.

For the compound `C=C[C@@]1(C)CCC2=C(C[C@@H](O)[C@H]3C(C)(C)CCC[C@]23C)[C@H]1OC`, the inhibition result in the experiment with TREx-HeLa-Vpr [1], with TREx-HeLa-Vpr [2] and in the experiment on TREx-HeLa-Vpr [3] was “inactive” throughout.

Turning to `C=C[C@@]1(C)CCC2=C(C[C@@H](O)[C@H]3C(C)(C)CCC[C@]23C)[C@@H]1O`, the Activity was 170% in the experiment with TREx-HeLa-Vpr [1] and 180% in the experiment on TREx-HeLa-Vpr [2]. Moreover, the Cell viability with TREx-HeLa-Vpr [3] is 157%.

On to `COc1c(C=O)c(O)cc2c1C(=O)c1ccccc1C2=O`, for which, in the experiment with TREx-HeLa-Vpr [4], the Activity was 137%.

Turning to `C=C[C@]1(C)C=C2C(=O)C[C@H]3C(C)(C)CC[C@H](O)[C@]3(C)[C@H]2CC1`, the inhibition result with TREx-HeLa-Vpr [1], in the experiment on TREx-HeLa-Vpr [2] and with TREx-HeLa-Vpr [3] was “inactive” in each case.

For `C=C[C@]1(C)C=C2C[C@@H](O)[C@H]3C(C)(C)CCC[C@]3(C)[C@H]2CC1`, the inhibition entry with TREx-HeLa-Vpr [1], in the experiment on TREx-HeLa-Vpr [2] and with TREx-HeLa-Vpr [3] was “inactive” in each case.

Take `C=C[C@]1(C)C=C2C[C@@H](O)[C@H]3C(C)(C)CCC[C@]3(C)[C@@]2(OC)CC1`: the inhibition result in the experiment with TREx-HeLa-Vpr [1], with TREx-HeLa-Vpr [2] and in the experiment with TREx-HeLa-Vpr [3] was “inactive” in each case.

On to `C=C[C@@]1(C)CCC2=C(C(=O)C[C@H]3C(C)(C)CCC[C@]23C)[C@H]1O`, for which the inhibition result in the experiment with TREx-HeLa-Vpr [1], in the experiment on TREx-HeLa-Vpr [2] and in the experiment on TREx-HeLa-Vpr [3] was “inactive” in each case.

On to `C=C[C@@]1(C)CCC2=C(C[C@@H](O)[C@H]3C(C)(C)CCC[C@]23C)[C@H]1O`, for which the inhibition result in the experiment on TREx-HeLa-Vpr [1], in the experiment on TREx-HeLa-Vpr [2] and in the experiment with TREx-HeLa-Vpr [3] was “inactive” in each case.

`C=C[C@]1(C)C=C2C[C@@H](O)[C@H]3C(C)(C)[C@H](O)C[C@H](O)[C@]3(C)[C@H]2CC1`: the inhibition entry in the experiment on TREx-HeLa-Vpr [1], in the experiment with TREx-HeLa-Vpr [2] and in the experiment on TREx-HeLa-Vpr [3] was “inactive” throughout.

On to `C=C[C@]1(C)C=C2CC[C@H]3C(C)(C)CC[C@H](O)[C@]3(C)[C@H]2[C@H](O)C1`, for which the inhibition result in the experiment on TREx-HeLa-Vpr [1], in the experiment with TREx-HeLa-Vpr [2] and in the experiment with TREx-HeLa-Vpr [3] was “inactive” in each case.

Regarding `C=C[C@]1(C)C=C2[C@@H](O)[C@@H](O)[C@H]3C(C)(C)CCC[C@]3(C)[C@@]2(O)CC1`, the Activity with TREx-HeLa-Vpr [1] came to 111%; with TREx-HeLa-Vpr [2], 130%. In addition, in the experiment with TREx-HeLa-Vpr [3], the Cell viability worked out at 96%.

With `C=C[C@]1(C)C=C2C[C@@H](O)[C@H]3C(C)(C)CC[C@H](O)[C@]3(C)[C@H]2CC1`, the inhibition entry in the experiment on TREx-HeLa-Vpr [1], with TREx-HeLa-Vpr [2] and in the experiment on TREx-HeLa-Vpr [3] was “inactive” each time.

For `C=C[C@]1(C)C=C2CC[C@H]3C(C)(C)C[C@H](O)[C@H](O)[C@]3(C)[C@H]2[C@H](O)C1`, the inhibition result in the experiment on TREx-HeLa-Vpr [1], in the experiment with TREx-HeLa-Vpr [2] and in the experiment with TREx-HeLa-Vpr [3] was “inactive” in each case.

Take `C=C[C@]1(C)C=C2CC[C@H]3C(C)(C)CC[C@H](O)[C@]3(C)[C@H]2CC1`: the inhibition result in the experiment on TREx-HeLa-Vpr [1], in the experiment on TREx-HeLa-Vpr [2] and in the experiment on TREx-HeLa-Vpr [3] was “inactive” in each case.

`C=C[C@@]1(C)CCC2=C(C[C@@H](O)[C@H]3C(C)(C)CCC[C@]23C)[C@@H]1OC`: the Activity turned out to be 119% in the experiment on TREx-HeLa-Vpr [1] and 126% with TREx-HeLa-Vpr [2]. Further, the Cell viability in the experiment with TREx-HeLa-Vpr [3] amounted to 114%.

`C=C[C@]1(C)C=C2CC[C@H]3C(C)(C)C[C@H](O)[C@H](O)[C@]3(C)[C@@]2(O)CC1`: the inhibition result in the experiment on TREx-HeLa-Vpr [1], in the experiment on TREx-HeLa-Vpr [2] and in the experiment with TREx-HeLa-Vpr [3] was “inactive” each time.

In the case of `C=C[C@@]1(C)CCC2=C(C[C@@H](O)[C@H]3C(C)(C)CC[C@H](O)[C@]23C)[C@H]1O`, the inhibition result with TREx-HeLa-Vpr [1], in the experiment on TREx-HeLa-Vpr [2] and in the experiment on TREx-HeLa-Vpr [3] was “inactive” each time.

Regarding `C=C[C@@]1(C)CCC2=C(C[C@@H](O)[C@H]3C(C)(C)CCC[C@]23C)C1=O`, the Activity with TREx-HeLa-Vpr [1] came to 106%; with TREx-HeLa-Vpr [2], 114%. For the same compound, the Cell viability in the experiment on TREx-HeLa-Vpr [3] stood at 98%.

In the case of `C=C[C@]1(C)C=C2CC[C@H]3C(C)(C)C[C@H](O)[C@H](O)[C@]3(C)[C@H]2CC1`, the inhibition entry in the experiment with TREx-HeLa-Vpr [1], in the experiment on TREx-HeLa-Vpr [2] and in the experiment on TREx-HeLa-Vpr [3] was “inactive” each time.

`C=C[C@]1(C)C=C2C(=O)C[C@H]3C(C)(C)CCC[C@]3(C)[C@@]2(O)CC1`: the inhibition entry in the experiment with TREx-HeLa-Vpr [1], in the experiment with TREx-HeLa-Vpr [2] and in the experiment on TREx-HeLa-Vpr [3] was “inactive” in each case.

With `CCOC(=O)/C=C/c1ccc(OC)cc1`, the inhibition result in the experiment on TREx-HeLa-Vpr [1], in the experiment with TREx-HeLa-Vpr [2] and in the experiment on TREx-HeLa-Vpr [3] was “inactive” in each case.

On to `C=C[C@]1(C)C=C2C[C@@H](O)[C@H]3C(C)(C)CC[C@H](OC(C)=O)[C@]3(C)[C@H]2CC1`, for which the Activity in the experiment with TREx-HeLa-Vpr [1] came out at 116%; in the experiment on TREx-HeLa-Vpr [2], 130%. For the same compound, the Cell viability in the experiment on TREx-HeLa-Vpr [3] stood at 105%.
